Experimental data published in PubChem BioAssay (NCI).
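All cell lines were grown in 96-well plates and treated with compound for 48 hours. GI50 = concentration required for 50% inhibition of growth. TGI is the concentration that stops growth completely.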

Tested on: MDA-MB-468 breast
Assay: DTP human tumour cell line panel, 48 h

Row | SMILES | GI50 | TGI
1 | CN(C)CCNC(=O)c1ccc(-c2nc3ccc4[nH]ncc4c3c3c2C2CCC3C2)cc1 (stereo not given) | 1120 nM | 3140 nM
2 | CN1CCN(CCOc2ccc(-c3cnc4c(-c5cccc(F)c5)cnn4c3)cc2)CC1 | 1670 nM | 3250 nM
3 | CC1CN(S(=O)(=O)c2oc(-c3ccc(Cl)cc3)nc2C#N)CC(C)O1 (stereo not given) | 1870 nM | 4160 nM
4 | O=C(Nc1ccc(F)cc1F)c1cc(Cl)ccc1O | 1640 nM | 5070 nM
5 | NC(=O)[C@@H](CC1CC1)[C@@H](CCC(F)(F)F)C(=O)N[C@H]1N=C(c2ccccc2)c2cccc(F)c2NC1=O | > 100000 nM | > 100000 nM
6 | CN1CCN(Cc2ccc(NC(=O)c3cncc(C#Cc4cnc(N)cc4C#N)c3)cc2C(F)(F)F)CC1 | 2010 nM | 5300 nM
7 | COC(=O)C(CCC(=O)CCl)N1C(=O)c2ccccc2C1=O (stereo not given) | 2110 nM | 5610 nM
8 | CCn1c(-c2cc3c([nH]c4ccccc43)c(-c3cccc(O)c3)n2)n[nH]c1=S | 3190 nM | 15200 nM
9 | CC(Nc1c(C#N)cnc2ccc(-c3cncc(-c4n[nH]c(=O)o4)c3)cc12)c1ccccc1 (stereo not given) | 1230 nM | 3660 nM
10 | NS(=O)(=O)c1ccc(N=Nc2c(O)[nH]c3ccc(C(=O)NCc4ccncc4)cc23)cc1 | > 25000 nM | > 25000 nM
11 | CSc1ccc(/C(=N/N=C(N)N)c2ccccc2)cc1 | 451 nM | 8600 nM
12 | CCN(Cc1cc(F)ccc1F)c1ccc(CO)c(Cl)c1 | 16.4 nM | 41.1 nM
13 | COc1cc2ncnc(-n3ncc4cc(NC(=O)Nc5ccc(Cl)c(Cl)c5)ccc43)c2cc1OC | 2170 nM | 4520 nM
14 | C#CCNC(=S)N/N=C(\C)c1ccccn1 | 33.5 nM | 273 nM
15 | CCC(C)Oc1nc2c(c(=O)n(C)c(=O)n2C)n1C (stereo not given) | > 100000 nM | > 100000 nM
16 | O=S1(=O)N(Cc2ccccc2)[C@@H](Cc2ccccc2)[C@H](O)[C@H](O)[C@H](Cc2ccccc2)N1Cc1ccccc1 | 2980 nM | 7170 nM
17 | CC(C)c1nc(N(C)S(C)(=O)=O)nc(-c2ccc(F)cc2)c1/C=C/[C@@H](O)C[C@@H](O)CC(=O)O | 18500 nM | 69300 nM
18 | COC(=O)C12CC(NC(=O)c3csc([C@@H](C[C@H](C(C)C)N(C)C(=O)[C@@H](NC(=O)[C@H]4CCCCN4C)C4CC4)OC(C)=O)n3)(C1)C2 | 16.9 nM | > 16700 nM
19 | N#C/C(=C\c1ccc([N+](=O)[O-])s1)c1nc2cc(Cl)ccc2s1 | 2360 nM | 5760 nM
20 | O=C(Nc1ccc(-n2ccc3c(NC(=O)c4ccccc4)ncnc32)cc1)c1cccc(C(F)(F)F)c1 | 4050 nM | 20400 nM

Row | SMILES | GI50 | TGI
21 | O=C(/C=C/c1ccc(C(F)(F)F)cc1)Nc1ccc(C=C2c3ccccc3C(=O)c3ccccc32)cc1 | 1990 nM | 20800 nM
22 | C=C1C(=O)O[C@H]2[C@H]1CC/C(COC(=O)NCc1ccc(OC)cc1)=C\CC[C@@]1(C)O[C@@H]21 | 352 nM | 1750 nM
23 | CSc1ncc(Br)c(Sc2nc(N)nc3nc[nH]c23)n1 | 2360 nM | 19700 nM
24 | NCCCCC1NC(=O)C(CC(=O)O)NC(=O)CNC(=O)C(CCCN=C(N)N)NC(=O)C(N)CSSCC(C(=O)O)NC(=O)C(CC(=O)O)NC(=O)C2CCCN2C(=O)CNC1=O (stereo not given) | > 100000 nM | > 100000 nM
25 | CCN1CCN(c2cc(C)nc(N(CCCNc3ccnc4cc(Cl)ccc34)Cc3ccc4c(c3)OCO4)n2)CC1 | 1820 nM | 4250 nM
26 | CCN1CCN(Cc2ccc(NC(=O)Nc3nc4ccc(Oc5ccnc(C(=O)NC)c5)cc4s3)cc2C(F)(F)F)CC1 | 1660 nM | 3200 nM
27 | Cc1ccc2nc(-c3ccc(OCC(=O)N=Nc4c(O)[nH]c5ccccc45)cc3)[nH]c2c1 | 2090 nM | 4900 nM
28 | COc1cccc(CN(C)c2ccc(CO)c(Cl)c2)c1 | 20.9 nM | 60 nM
29 | CCCCCCCCOC(=O)c1c(C)[nH]c(/C=C2\N=C(c3ccc[nH]3)C=C2OC)c1C | 86.8 nM | 2670 nM
30 | Cc1cc(C)c2c(n1)sc1c(N)ncnc12 | 19900 nM | > 25000 nM
31 | C1=C/COCc2cc(ccc2OCCN2CCCC2)Nc2nccc(n2)-c2ccc(o2)COC/1 | 1490 nM | 3180 nM
32 | O=C1C2=C(C(=O)c3cnccc31)C1C=CC2CC1 (stereo not given) | 185 nM | 416 nM
33 | CC1=C2C(=CC(C)(C)[C@@H]2O)C(=O)[C@](C)(O)C12CC2 | 12.9 nM | 36.2 nM
34 | Cc1ncc(C(=O)Nc2ccc(CN3CCN(C)CC3)c(C(F)(F)F)c2)cc1C#Cc1ccc(N)nc1 | 368 nM | 2120 nM
35 | CN(Cc1ccc(C(F)(F)F)cc1)CC(O)C(=O)Nc1ccc(Cl)cc1 (stereo not given) | 1370 nM | 2910 nM
36 | c1cc(-c2nnc(SSc3ncnc4nc[nH]c34)o2)ccn1 | 251 nM | 967 nM
37 | CCCCCN(CCCCC)CC(O)c1cc(Cl)ccc1OC (stereo not given) | 9710 nM | 23100 nM
38 | Cc1cc(Nc2nc(C(=O)Nc3ccccc3)nc3ccccc23)n[nH]1 | 9150 nM | > 25000 nM
39 | COc1ccc(/C=C/C(=O)c2ccc(-n3cc(CN4CCN(c5cc6c(cc5F)c(=O)c(C(=O)O)cn6C5CC5)CC4)nn3)cc2)cc1OC | 1960 nM | 5240 nM
40 | C=C/C(C)=C/C[C@]1(C)[C@H](C)[C@@H](OC(=O)CCC)[C@H](O)[C@@]23C(=C[C@H](OC)C[C@@H]12)[C@@H](OC(=O)CCC)O[C@H]3OC(C)=O | 337 nM | 1240 nM
